Assay results reported in patent publication US5495032A, “Process for producing 7-(substituted)-8-(substituted-9-[(substituted glycyl)amido]-6-demethyl-6-deoxytetracyclines” (priority 1994, dated 1996).
≈ marks a conversion by molar mass, not a printed value. Counter-ions that a name gives are not always drawn. Like-named read-outs stand apart in the source and are kept apart here.

Experiments:
Assay type in all cases: cell-based
E. coli UBMS 88-1 Tet B = assay: microbe, parasite or virus in culture; settings: Escherichia coli, UBMS881TETB, 18 h, 18 hours at 35° C.
[1] = test system: E. coli MC 4100 Tet sens.; assay: MIC, agar dilution method; settings: Escherichia coli, 18 hours at 35° C., read-out: MIC
E. coli PRP1 Tet A = assay: microbe, parasite or virus in culture; settings: Escherichia coli, PRP1TETA, 18 h, 18 hours at 35° C.
[2] = test system: E. coli MC 4100 TNIOC Tet B; assay: microbe, parasite or virus in culture; settings: Escherichia coli, 18 h, 18 hours at 35° C.
E. coli J3272 Tet C = assay: microbe, parasite or virus in culture; settings: Escherichia coli, J3272TETC, 18 h
E. coli UBMS 89-1 Tet M = assay: microbe, parasite or virus in culture; settings: Escherichia coli, UBMS891TETM, 18 h, 18 hours at 35° C.
[3] = test system: E. coli UBMS 89-2 Tet sens; assay: MIC, agar dilution method; settings: Escherichia coli, UBMS892TETSENS, 18 h, 18 hours at 35° C., read-out: MIC
E. coli J2175 = assay: MIC, agar dilution method; settings: Escherichia coli, 18 hours at 35° C., read-out: MIC
E. coli BAJ9003 IMP MUT = assay: microbe, parasite or virus in culture; settings: Escherichia coli, BAJ9003IMPMUT, 18 h, 18 hours at 35° C.
E. coli UBMS 90-4 Tet M = assay: microbe, parasite or virus in culture; settings: Escherichia coli, UBMS904TETM, 18 h, 18 hours at 35° C.
E. coli UBMS 90-5 sens = assay: MIC, agar dilution method; settings: Escherichia coli, UBMS905SENS, 18 hours at 35° C., read-out: MIC
E. coli #311 (MP) = assay: MIC, agar dilution method; settings: Escherichia coli, 18 hours at 35° C., read-out: MIC
E. coli ATCC 25922 = assay: MIC, agar dilution method; settings: Escherichia coli, ATCC25922, 18 hours at 35° C., read-out: MIC
E. coli J3272 Tet D = assay: microbe, parasite or virus in culture; settings: Escherichia coli, J3272TETD, 18 h
S. mariescens FPOR 8733 = assay: MIC, agar dilution method; settings: 18 hours at 35° C.
[4] = test system: X. maltophilia NEMC 87210; assay: MIC, agar dilution method; settings: Stenotrophomonas maltophilia
[5] = test system: Ps. acruginosa ATCC 27853; assay: MIC, agar dilution method
S. aureus NEMC 8769 = assay: MIC, agar dilution method; settings: Staphylococcus aureus, NEMC8769, 18 h
S. aureus UBMS 88-4 = assay: MIC, agar dilution method; settings: Staphylococcus aureus, UBMS884, 18 hours at 35° C., read-out: MIC
[6] = test system: S. aureus UBMS 88-5 Tet M; assay: microbe, parasite or virus in culture; settings: Staphylococcus aureus, UBMS885TETM, 18 h
[7] = test system: S. aureus UBMS 88-7 Tet K; assay: microbe, parasite or virus in culture; settings: Staphylococcus aureus, UBMS887TETK, 18 h, 18 hours at 35° C.
[8] = test system: S. aureus UBMS 90-1 Tet M; assay: microbe, parasite or virus in culture; settings: Staphylococcus aureus, UBMS901TETM, 18 h, 18 hours at 35° C.
S. aureus UBMS 90-3 = assay: MIC, agar dilution method; settings: Staphylococcus aureus, UBMS903, 18 h
[9] = test system: S. aureus UBMS 90-2 Tet M; assay: microbe, parasite or virus in culture; settings: Staphylococcus aureus, UBMS902TETM, 18 h, 18 hours at 35° C.
S. aureus IVES 2943 = assay: MIC, agar dilution method; settings: Staphylococcus aureus
S. aureus ROSE (MP) = assay: MIC, agar dilution method; settings: Staphylococcus aureus, 18 hours at 35° C.
S. aureus SMITH (MP) = assay: MIC, agar dilution method; settings: Staphylococcus aureus, 18 hours at 35° C.
S. aureus IVES 1 983 = assay: MIC, agar dilution method; settings: Staphylococcus aureus
S. aureus ATCC 29213 = assay: MIC, agar dilution method; settings: Staphylococcus aureus, ATCC29213, 18 h, 18 hours at 35° C.
[10] = test system: S. hemolyticus AVHAH 88-3; assay: MIC, agar dilution method; settings: Streptococcus pyogenes
Enterococcus 12201 = assay: MIC, agar dilution method; settings: Enterococcus, 12201, 18 h, 18 hours at 35° C.
E. faecalis ATCC 29212 = assay: MIC, agar dilution method; settings: Enterococcus faecalis
[11] = NEMC87210, 18 h, 18 hours at 35° C.
[12] = AVHAH883, 18 h, 18 hours at 35° C.
[13] = ATCC29212, 18 h, 18 hours at 35° C.

Row | SMILES | MIC (E. coli UBMS 88-1 Tet B) [µg/mL] | MIC [1] [µg/mL] | MIC (E. coli PRP1 Tet A) [µg/mL] | MIC [2] [µg/mL] | MIC (E. coli J3272 Tet C) [µg/mL] | MIC (E. coli UBMS 89-1 Tet M) [µg/mL] | MIC [3] [µg/mL] | MIC (E. coli J2175) [µg/mL] | MIC (E. coli BAJ9003 IMP MUT) [µg/mL] | MIC (E. coli UBMS 90-4 Tet M) [µg/mL] | MIC (E. coli UBMS 90-5 sens) [µg/mL] | MIC (E. coli #311 (MP)) [µg/mL] | MIC (E. coli ATCC 25922) [µg/mL] | MIC (E. coli J3272 Tet D) [µg/mL] | MIC (S. aureus NEMC 8769) [µg/mL] | MIC (S. aureus UBMS 88-4) [µg/mL] | MIC [7] [µg/mL] | MIC [8] [µg/mL] | MIC [9] [µg/mL] | MIC (Enterococcus 12201) [µg/mL] | further results
1 | CCCNCC(=O)Nc1c(Cl)cc2c(c1O)C(=O)C1=C(O)[C@]3(O)C(=O)C(C(N)=O)=C(O)[C@@H](N(C)C)C3CC1C2 (stereo partly drawn) [F, [4S-(4α,12aα)]-8-Chloro-4-(dimethylamino)-1,4,4a,5,5a,6,11,12a-octahydro-3,10,12,12a-tetrahydroxy-1,11-dioxo-9-[[(propylamino)acetyl]amino]-2-naphthacenecarboxamide dihydrochloride] | 0.5 | 0.12 | 4 | 0.5 | 1 | 0.5 | 1 | 1 | 0.12 | 0.5 | 0.5 | 0.5 | 0.5 | 0.25 | 0.25 | 0.25 | 8 | 0.5 | 0.25 | 0.25 | MIC (S. mariescens FPOR 8733; read-out: MIC): 8 µg/mL; MIC ([4]; NEMC87210, 18 hours at 35° C., read-out: MIC): 2 µg/mL; MIC ([5]; Ps. acruginosa ATCC 27853, 18 hours at 35° C., read-out: MIC): 32 µg/mL; MIC [6]: 0.5 µg/mL; MIC (S. aureus UBMS 90-3): 0.5 µg/mL; MIC (S. aureus IVES 2943; IVES2943, 18 h): 16 µg/mL; MIC (S. aureus ROSE (MP); 18 h): 16 µg/mL; MIC (S. aureus SMITH (MP); 18 h): 0.25 µg/mL; MIC (S. aureus IVES 1 983; IVES1983, 18 h): 8 µg/mL; MIC (S. aureus ATCC 29213): 0.25 µg/mL; MIC ([10]; AVHAH883, 18 hours at 35° C., read-out: MIC): 4 µg/mL; MIC (E. faecalis ATCC 29212; ATCC29212, 18 hours at 35° C., read-out: MIC): 0.12 µg/mL
2 | CNCC(=O)Nc1c(Cl)cc2c(c1O)C(=O)C1=C(O)[C@]3(O)C(=O)C(C(N)=O)=C(O)[C@@H](N(C)C)C3CC1C2 (stereo partly drawn) [I, [4S-(4α,12aα)]-8-Chloro-4-(dimethylamino)-1,4,4a,5,5a,6,11,12a-octahydro-3, 10,12,12a-tetrahydroxy-1,11-dioxo-9-[[(methylamino)acetyl]amino]-2-naphthacenecarboxamide dihydrochloride] | 1 | 0.25 | 16 | 1 | 16 | 2 | 2 | 1 | 0.25 | 1 | 1 | 2 | 1 | 1 | 0.5 | 0.5 | > 32 | 0.5 | 0.5 | 0.5 | MIC (S. mariescens FPOR 8733; 18 h): 16 µg/mL; MIC [4, 11]: 16 µg/mL; MIC ([5]; 18 h): 16 µg/mL; MIC [6]: 0.5 µg/mL; MIC (S. aureus UBMS 90-3): 0.5 µg/mL; MIC (S. aureus IVES 2943; IVES2943, S. aureus IVES 2943, 18 hours at 35° C., read-out: MIC): > 32 µg/mL; MIC (S. aureus ROSE (MP); read-out: MIC): > 32 µg/mL; MIC (S. aureus SMITH (MP); read-out: MIC): 0.5 µg/mL; MIC (S. aureus IVES 1 983; IVES1983, S. aureus IVES 1 983, 18 hours at 35° C., read-out: MIC): > 32 µg/mL; MIC (S. aureus ATCC 29213): 0.5 µg/mL; MIC [10, 12]: 2 µg/mL; MIC (E. faecalis ATCC 29212; [13]): 0.25 µg/mL
3 | CN(C)[C@@H]1C(O)=C(C(N)=O)C(=O)[C@@]2(O)C(O)=C3C(=O)c4c(O)cccc4[C@@](C)(O)[C@H]3C[C@@H]12 [M, Tetracycline] | > 32 |  | 32 (≈ 72 µM) | > 32 | > 32 | 32 (≈ 72 µM) | 2 (≈ 4.5 µM) | 2 (≈ 4.5 µM) |  | 32 (≈ 72 µM) |  |  |  | > 32 |  |  | > 32 | > 32 | 32 (≈ 72 µM) | > 32 | MIC (S. mariescens FPOR 8733; 18 h): > 32 µg/mL; MIC [4, 11]: 8 µg/mL (≈ 18 µM); MIC ([5]; 18 h): 16 µg/mL (≈ 36 µM); MIC ([6]; S. aureus UBMS 88-5 Tet M, 18 hours at 35° C.): > 32 µg/mL; MIC (S. aureus IVES 2943; IVES2943, 18 h): > 32 µg/mL; MIC (S. aureus ROSE (MP); 18 h): > 32 µg/mL; MIC (S. aureus IVES 1 983; IVES1983, 18 h): > 32 µg/mL; MIC [10, 12]: 1 µg/mL (≈ 2.25 µM); MIC (E. faecalis ATCC 29212; [13]): 16 µg/mL (≈ 36 µM)
